Source: patent US20250249012A1, “COMPOSITIONS AND METHODS FOR TREATING AND/OR PREVENTING A VIRAL INFECTION” (priority 2022, published 2025)
Structures can show the parent of a compound that is named as a salt. Where two headings read alike, the source gives them in different places.

Experiments:
[1] = Solubility of Apilimod and Nafamostat in different vehicles (visible precipitate); format: physicochemical; conditions: for precipitate in solution: 1 mg/ml Apilimod di-mesylate, 2 mg/ml Nafamostat mesylate, 12 hours at room temperature, also seen after centrifugation; for solubility in deionized water: mixed and dissolved in deionized (MilliQ) water; for solubility in solutions containing salt: phosphate buffer saline (PBS) or DMEM cell culture medium, particularly when together
From the text: FIGS. 1A-1B show the solubility of Apilimod and Nafamostat in different vehicles. […] Magnified images of the boxed areas are shown on the right panels.
This is the reason why our drug mixtures were made in deionized (MilliQ) water as stocks and for intranasal administration. While the mouse nose tolerates exposure to deionized (MilliQ) water, for humans it may be necessary to adjust the osmolarity of the solution, for example by adding sucrose.

[2] = Pharmacokinetics in plasma; format: in vivo
[3] = test system: A549-ACE2-TMPRSS2GFP cells; conditions: 20 hours post infection
Vero-E6 cells = conditions: 20 hours post infection

Molecule	precipitate in solution ([1]; in DMEM)	precipitate in solution ([1]; in PBS)	solubility in deionized water [1]	solubility in solutions containing salt [1]	half-life in plasma [2]	number of cells, normalized to vehicle-treated infected cells ([3]; drug stock prepared in DMEM)	number of cells, normalized to vehicle-treated infected cells ([3]; drug stock prepared in PBS)	number of cells, normalized to vehicle-treated infected cells (Vero-E6 cells; drug stock prepared in DMEM)	number of cells, normalized to vehicle-treated infected cells (Vero-E6 cells; drug stock prepared in PBS)
N=C(N)c1ccc2cc(OC(=O)c3ccc(N=C(N)N)cc3)ccc2c1 [Nafamostat mesylate]	a precipitate is observable	a precipitate is observable	substantially increased	relatively insoluble and precipitate	relatively short half-life times (minutes)	Significant loss of cells	Significant loss of cells		
N-[(E)-(3-methylphenyl)methylidencamino]-6-morpholin-4-yl-2-(2-pyridin-2-ylethoxy)pyrimidin-4-amine [Apilimod dimesylate]	a precipitate is observable	a precipitate is observable	substantially increased	relatively insoluble and precipitate	relatively short half-life times (minutes)			Significant loss of cells	Significant loss of cells
